Values quoted from earlier work in patent US20070010487A1 (priority 2005, published 2007).

Molecular target: P-gp efflux (Homo sapiens, UniProt P08183)
Sequence (P08183 whole entry): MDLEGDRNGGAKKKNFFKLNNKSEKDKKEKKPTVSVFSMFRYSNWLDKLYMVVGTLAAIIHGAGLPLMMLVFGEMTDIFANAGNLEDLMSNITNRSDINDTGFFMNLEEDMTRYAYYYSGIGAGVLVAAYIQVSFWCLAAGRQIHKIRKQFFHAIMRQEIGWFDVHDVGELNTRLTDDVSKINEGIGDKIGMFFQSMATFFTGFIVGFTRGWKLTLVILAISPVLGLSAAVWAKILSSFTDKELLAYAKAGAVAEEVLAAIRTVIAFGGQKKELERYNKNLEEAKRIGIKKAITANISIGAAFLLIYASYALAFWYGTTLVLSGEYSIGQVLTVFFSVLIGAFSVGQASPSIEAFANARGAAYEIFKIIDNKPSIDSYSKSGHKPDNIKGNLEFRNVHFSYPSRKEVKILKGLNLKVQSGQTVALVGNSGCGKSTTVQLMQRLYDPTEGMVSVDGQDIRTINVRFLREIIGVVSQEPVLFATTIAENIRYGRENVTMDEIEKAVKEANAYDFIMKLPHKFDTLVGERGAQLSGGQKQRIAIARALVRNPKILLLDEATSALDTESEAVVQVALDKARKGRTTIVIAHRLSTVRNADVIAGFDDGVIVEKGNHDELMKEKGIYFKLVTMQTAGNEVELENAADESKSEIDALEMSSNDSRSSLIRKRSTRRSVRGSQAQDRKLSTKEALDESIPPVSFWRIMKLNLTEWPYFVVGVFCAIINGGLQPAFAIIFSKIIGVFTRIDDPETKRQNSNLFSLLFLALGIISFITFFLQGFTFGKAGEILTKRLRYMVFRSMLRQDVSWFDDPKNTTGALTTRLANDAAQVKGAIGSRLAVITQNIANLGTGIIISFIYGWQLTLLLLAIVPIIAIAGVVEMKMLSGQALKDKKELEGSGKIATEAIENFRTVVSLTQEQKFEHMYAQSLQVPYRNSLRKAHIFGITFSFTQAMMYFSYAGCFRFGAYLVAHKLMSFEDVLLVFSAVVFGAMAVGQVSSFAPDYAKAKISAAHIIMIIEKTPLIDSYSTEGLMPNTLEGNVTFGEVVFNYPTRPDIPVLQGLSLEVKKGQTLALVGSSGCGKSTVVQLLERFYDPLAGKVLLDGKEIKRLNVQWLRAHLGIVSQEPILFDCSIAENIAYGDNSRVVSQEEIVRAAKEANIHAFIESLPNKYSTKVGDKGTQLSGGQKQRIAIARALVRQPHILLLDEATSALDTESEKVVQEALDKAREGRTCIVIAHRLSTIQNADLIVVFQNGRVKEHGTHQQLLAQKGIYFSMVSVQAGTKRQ

Structure (SMILES): O[C@@H](COc1cccc2ncccc12)CN1CCN([C@@H]2c3ccccc3[C@@H]3[C@H](c4ccccc42)C3(F)F)CC1 [Zosuquidar]
- substrate for P-gp efflux: does not appear to be a substrate for P-gp efflux
